Experimental data published in patent US8247211B2, “Glycopeptide antibiotics” (American Cyanamid Company, priority 2001, dated 2012).
≈ marks a conversion by molar mass, not a printed value.

Legend:
Experiment in all cases: In vitro antibacterial evaluation: minimum inhibitory concentration (MIC), broth dilution method
Type in all cases: cell-based
Enterococcus sp. = conditions: broth dilution, 5×10^5 CFU/mL, 18 hours at 35° C.
Protocol: (§1) The minimum inhibitory concentration (MIC), the lowest concentration of the antibiotic which inhibits growth of the test organism, is determined by the broth dilution method using Muller-Hinton II […] (Baltimore Biological Laboratories) following the recommendations of the National Committee for Clinical Laboratory Standards [Methods for dilution antimicrobial susceptibility tests for bacteria that grow aerobically, approved standard M7-A2, National Committee for Clinical Laboratory Standards, Villanova, Pa].
(§2) An inoculum level of 5×10^5 CFU/mL, and a range of antibiotic concentrations (64-0.06 μg/mL) is used. […] The test organisms include a spectrum of Gram-positive bacteria comprised of Staphylococcus sp., Streptococcus sp. and Enterococcus sp. These organisms include recent clinical isolates that are resistant to methicillin, penicillin and/or vancomycin.

Staphylococcus sp. = conditions: for MIC Staphylococcus aureus (ATCC 29213): strain ATCC 29213; for MIC Staphylococcus aureus (GC 1131): strain GC 1131; for MIC Staphylococcus aureus (GC 4541): strain GC 4541; for MIC Staphylococcus aureus (GC 4542): strain GC 4542; for MIC Staphylococcus aureus-SMITH (GC 4543): strain GC 4543; for MIC Staphylococcus aureus (GC 4544): strain GC 4544; for MIC Staphylococcus aureus (GC 4545): strain GC 4545; for MIC Staphylococcus haemolyticus (GC 4546): strain GC 4546; for MIC Coagulase Negative Staphylococcus (GC 4547): strain GC 4547; for MIC Coagulase Negative Staphylococcus (GC 4548): strain GC 4548; for MIC Coagulase Negative Staphylococcus (GC 4549): strain GC 4549; for MIC Coagulase Negative Staphylococcus (GC 4551): strain GC 4551; for MIC Coagulase Negative Staphylococcus (ID-3941): strain ID-3941
Protocol: as §1, §2

Streptococcus sp. = conditions: broth dilution, 5×10^5 CFU/mL, 18 hours at 35° C.
Protocol: as §1, §2

Escherichia coli = conditions: 5×10^5 CFU/mL, 18 hours at 35° C.
Protocol: as §1, §2

[1] = broth dilution, 18 hours at 35° C.

MIC Enterococccus avium (GC 4558) (Enterococcus sp.) | MIC Enterococccus faecalis (ATCC 29212) (Enterococcus sp.) | MIC Enterococccus faecalis (GC 4552) (Enterococcus sp.) | MIC Enterococccus faecalis (GC 4553) (Enterococcus sp.) | MIC Enterococccus faecalis (GC 4554) (Enterococcus sp.) | MIC Enterococccus faecium (GC 2243) (Enterococcus sp.) | MIC Enterococccus faecium (GC 4556) (Enterococcus sp.) | MIC Enterococccus faecium (GC 4557) (Enterococcus sp.) | MIC Enterococcus faecalis (GC 2242) (Enterococcus sp.) | MIC Staphylococcus aureus (ATCC 29213) (Staphylococcus sp.) | MIC Staphylococcus aureus (ATCC 29213) (Staphylococcus sp.; [1]) | MIC Staphylococcus aureus (GC 1131) (Staphylococcus sp.) | MIC Staphylococcus aureus (GC 1131) (Staphylococcus sp.; [1]) | MIC Staphylococcus aureus (GC 4541) (Staphylococcus sp.) | MIC Staphylococcus aureus (GC 4541) (Staphylococcus sp.; [1]) | MIC Staphylococcus aureus (GC 4542) (Staphylococcus sp.) | MIC Staphylococcus aureus (GC 4542) (Staphylococcus sp.; [1]) | MIC Staphylococcus aureus-SMITH (GC 4543) (Staphylococcus sp.; 18 hours at 35° C.) | MIC Staphylococcus aureus-SMITH (GC 4543) (Staphylococcus sp.; [1]) | MIC Staphylococcus aureus (GC 4544) (Staphylococcus sp.) | Structure (SMILES) | further results
2 µg/mL (≈ 1.45 µM) | 2 µg/mL (≈ 1.45 µM) | 2 µg/mL (≈ 1.45 µM) | 2 µg/mL (≈ 1.45 µM) | 2 µg/mL (≈ 1.45 µM) | 2 µg/mL (≈ 1.45 µM) | 2 µg/mL (≈ 1.45 µM) | 1 µg/mL (≈ 0.726 µM) | 2 µg/mL (≈ 1.45 µM) | 1 µg/mL (≈ 0.726 µM) | 1 µg/mL (≈ 0.726 µM) | 1 µg/mL (≈ 0.726 µM) | 1 µg/mL (≈ 0.726 µM) | 1 µg/mL (≈ 0.726 µM) | 1 µg/mL (≈ 0.726 µM) | 1 µg/mL (≈ 0.726 µM) | 1 µg/mL (≈ 0.726 µM) | 1 µg/mL (≈ 0.726 µM) | 1 µg/mL (≈ 0.726 µM) | 1 µg/mL (≈ 0.726 µM) | CCCCCC1OCC2OC(OC3C(CO)OC(Oc4ccc(CC5NC(=O)C(C(C)c6ccccc6)NC(=O)CNC(=O)C(CO)NC(=O)C(C(O)C6CNC(=N)N6C6OC(CO)C(O)C(O)C6O)NC(=O)C(C(O)C6CNC(=N)N6)NC5=O)cc4)C(O)C3O)C(O)C(O)C2O1 (stereo not drawn) [Example 108, Cyclo[glycyl-β-methylphenylalanyl-O-[4-O-(4,6-O-hexylidenehexonyranosyl)hexopyranosyl]-tyrosyl-3-(2-iminoimidazolidin-4-yl)seryl-3-(3-hexopyranosyl-2-iminoimidazolidin-4-yl)-serylseryl]] | MIC Staphylococcus aureus (GC 4544) (Staphylococcus sp.; [1]): 1 µg/mL (≈ 0.726 µM); MIC Staphylococcus aureus (GC 4545) (Staphylococcus sp.): 1 µg/mL (≈ 0.726 µM); MIC Staphylococcus aureus (GC 4545) (Staphylococcus sp.; [1]): 1 µg/mL (≈ 0.726 µM); MIC Staphylococcus haemolyticus (GC 4546) (Staphylococcus sp.): 1 µg/mL (≈ 0.726 µM); MIC Staphylococcus haemolyticus (GC 4546) (Staphylococcus sp.; [1]): 1 µg/mL (≈ 0.726 µM); MIC Coagulase Negative Staphylococcus (GC 4547) (Staphylococcus sp.): 1 µg/mL (≈ 0.726 µM); MIC Coagulase Negative Staphylococcus (GC 4547) (Staphylococcus sp.; [1]): 1 µg/mL (≈ 0.726 µM); MIC Coagulase Negative Staphylococcus (GC 4548) (Staphylococcus sp.): <0.5 µg/mL; MIC Coagulase Negative Staphylococcus (GC 4548) (Staphylococcus sp.; [1]): <0.5 µg/mL; MIC Coagulase Negative Staphylococcus (GC 4549) (Staphylococcus sp.): 1 µg/mL (≈ 0.726 µM); MIC Coagulase Negative Staphylococcus (GC 4549) (Staphylococcus sp.; [1]): 1 µg/mL (≈ 0.726 µM); MIC Coagulase Negative Staphylococcus (GC 4551) (Staphylococcus sp.): 1 µg/mL (≈ 0.726 µM); MIC Coagulase Negative Staphylococcus (GC 4551) (Staphylococcus sp.; [1]): 1 µg/mL (≈ 0.726 µM); MIC Coagulase Negative Staphylococcus (ID-3941) (Staphylococcus sp.): 1 µg/mL (≈ 0.726 µM); MIC Coagulase Negative Staphylococcus (ID-3941) (Staphylococcus sp.; [1]): 1 µg/mL (≈ 0.726 µM); MIC Streptococcus agalactiae (GC 4564) (Streptococcus sp.): <0.5 µg/mL; MIC Streptococcus pneumoniae (GC 4565) (Streptococcus sp.): <0.5 µg/mL; MIC Streptococcus pyogenes (ID-3187) (Streptococcus sp.): <0.5 µg/mL; MIC Escherichia coli (ATCC 25922) (Escherichia coli): 32 µg/mL (≈ 23.2 µM)
2 µg/mL (≈ 1.42 µM) | 2 µg/mL (≈ 1.42 µM) | 2 µg/mL (≈ 1.42 µM) | 2 µg/mL (≈ 1.42 µM) | 2 µg/mL (≈ 1.42 µM) | 1 µg/mL (≈ 0.712 µM) | 2 µg/mL (≈ 1.42 µM) | 1 µg/mL (≈ 0.712 µM) | 2 µg/mL (≈ 1.42 µM) | 1 µg/mL (≈ 0.712 µM) | 1 µg/mL (≈ 0.712 µM) | 1 µg/mL (≈ 0.712 µM) | 1 µg/mL (≈ 0.712 µM) | 1 µg/mL (≈ 0.712 µM) | 1 µg/mL (≈ 0.712 µM) | 1 µg/mL (≈ 0.712 µM) | 1 µg/mL (≈ 0.712 µM) | 1 µg/mL (≈ 0.712 µM) | 1 µg/mL (≈ 0.712 µM) | 1 µg/mL (≈ 0.712 µM) | CCCCCCCC1OCC2OC(OC3C(CO)OC(Oc4ccc(CC5NC(=O)C(C(C)c6ccccc6)NC(=O)CNC(=O)C(CO)NC(=O)C(C(O)C6CNC(=N)N6C6OC(CO)C(O)C(O)C6O)NC(=O)C(C(O)C6CNC(=N)N6)NC5=O)cc4)C(O)C3O)C(O)C(O)C2O1 (stereo not drawn) [Example 109, Cyclo[glycyl-β-methylphenylalanyl-O-[4-O-(4,6-O-octylidenehexopyranosyl)hexopyranosyl]-tyrosyl-3-(2-iminoimidazoliclin-4-yl)seryl-3-(3-hexopyranosyl-2-iminoimidazolidin-4-yl)-serylseryl]] | MIC Staphylococcus aureus (GC 4544) (Staphylococcus sp.; [1]): 1 µg/mL (≈ 0.712 µM); MIC Staphylococcus aureus (GC 4545) (Staphylococcus sp.): 1 µg/mL (≈ 0.712 µM); MIC Staphylococcus aureus (GC 4545) (Staphylococcus sp.; [1]): 1 µg/mL (≈ 0.712 µM); MIC Staphylococcus haemolyticus (GC 4546) (Staphylococcus sp.): 1 µg/mL (≈ 0.712 µM); MIC Staphylococcus haemolyticus (GC 4546) (Staphylococcus sp.; [1]): 1 µg/mL (≈ 0.712 µM); MIC Coagulase Negative Staphylococcus (GC 4547) (Staphylococcus sp.): 1 µg/mL (≈ 0.712 µM); MIC Coagulase Negative Staphylococcus (GC 4547) (Staphylococcus sp.; [1]): 1 µg/mL (≈ 0.712 µM); MIC Coagulase Negative Staphylococcus (GC 4548) (Staphylococcus sp.): <0.5 µg/mL; MIC Coagulase Negative Staphylococcus (GC 4548) (Staphylococcus sp.; [1]): <0.5 µg/mL; MIC Coagulase Negative Staphylococcus (GC 4549) (Staphylococcus sp.): 1 µg/mL (≈ 0.712 µM); MIC Coagulase Negative Staphylococcus (GC 4549) (Staphylococcus sp.; [1]): 1 µg/mL (≈ 0.712 µM); MIC Coagulase Negative Staphylococcus (GC 4551) (Staphylococcus sp.): 1 µg/mL (≈ 0.712 µM); MIC Coagulase Negative Staphylococcus (GC 4551) (Staphylococcus sp.; [1]): 1 µg/mL (≈ 0.712 µM); MIC Coagulase Negative Staphylococcus (ID-3941) (Staphylococcus sp.): 1 µg/mL (≈ 0.712 µM); MIC Coagulase Negative Staphylococcus (ID-3941) (Staphylococcus sp.; [1]): 1 µg/mL (≈ 0.712 µM); MIC Streptococcus agalactiae (GC 4564) (Streptococcus sp.): <0.5 µg/mL; MIC Streptococcus pneumoniae (GC 4565) (Streptococcus sp.): <0.5 µg/mL; MIC Streptococcus pyogenes (ID-3187) (Streptococcus sp.): <0.5 µg/mL; MIC Escherichia coli (ATCC 25922) (Escherichia coli): 16 µg/mL (≈ 11.4 µM)
4 µg/mL (≈ 2.9 µM) | 4 µg/mL (≈ 2.9 µM) | 4 µg/mL (≈ 2.9 µM) | 4 µg/mL (≈ 2.9 µM) | 2 µg/mL (≈ 1.45 µM) | 4 µg/mL (≈ 2.9 µM) | 2 µg/mL (≈ 1.45 µM) | 2 µg/mL (≈ 1.45 µM) | 2 µg/mL (≈ 1.45 µM) | 1 µg/mL (≈ 0.726 µM) | 1 µg/mL (≈ 0.726 µM) | 1 µg/mL (≈ 0.726 µM) | 1 µg/mL (≈ 0.726 µM) | 1 µg/mL (≈ 0.726 µM) | 1 µg/mL (≈ 0.726 µM) | 1 µg/mL (≈ 0.726 µM) | 1 µg/mL (≈ 0.726 µM) | 1 µg/mL (≈ 0.726 µM) | 1 µg/mL (≈ 0.726 µM) | 2 µg/mL (≈ 1.45 µM) | CC(c1ccccc1)C1NC(=O)CNC(=O)C(CO)NC(=O)C(C(O)C2CNC(=N)N2C2OC(CO)C(O)C(O)C2O)NC(=O)C(C(O)C2CNC(=N)N2)NC(=O)C(Cc2ccc(OC3OC(CO)C(OC4OC5COC(CC(C)(C)C)OC5C(O)C4O)C(O)C3O)cc2)NC1=O (stereo not drawn) [Example 110] | MIC Staphylococcus aureus (GC 4544) (Staphylococcus sp.; [1]): 2 µg/mL (≈ 1.45 µM); MIC Staphylococcus aureus (GC 4545) (Staphylococcus sp.): 1 µg/mL (≈ 0.726 µM); MIC Staphylococcus aureus (GC 4545) (Staphylococcus sp.; [1]): 1 µg/mL (≈ 0.726 µM); MIC Staphylococcus haemolyticus (GC 4546) (Staphylococcus sp.): 1 µg/mL (≈ 0.726 µM); MIC Staphylococcus haemolyticus (GC 4546) (Staphylococcus sp.; [1]): 1 µg/mL (≈ 0.726 µM); MIC Coagulase Negative Staphylococcus (GC 4547) (Staphylococcus sp.): 1 µg/mL (≈ 0.726 µM); MIC Coagulase Negative Staphylococcus (GC 4547) (Staphylococcus sp.; [1]): 1 µg/mL (≈ 0.726 µM); MIC Coagulase Negative Staphylococcus (GC 4548) (Staphylococcus sp.): 1 µg/mL (≈ 0.726 µM); MIC Coagulase Negative Staphylococcus (GC 4548) (Staphylococcus sp.; [1]): 1 µg/mL (≈ 0.726 µM); MIC Coagulase Negative Staphylococcus (GC 4549) (Staphylococcus sp.): 1 µg/mL (≈ 0.726 µM); MIC Coagulase Negative Staphylococcus (GC 4549) (Staphylococcus sp.; [1]): 1 µg/mL (≈ 0.726 µM); MIC Coagulase Negative Staphylococcus (GC 4551) (Staphylococcus sp.): 1 µg/mL (≈ 0.726 µM); MIC Coagulase Negative Staphylococcus (GC 4551) (Staphylococcus sp.; [1]): 1 µg/mL (≈ 0.726 µM); MIC Coagulase Negative Staphylococcus (ID-3941) (Staphylococcus sp.): 1 µg/mL (≈ 0.726 µM); MIC Coagulase Negative Staphylococcus (ID-3941) (Staphylococcus sp.; [1]): 1 µg/mL (≈ 0.726 µM); MIC Streptococcus agalactiae (GC 4564) (Streptococcus sp.): <0.5 µg/mL; MIC Streptococcus pneumoniae (GC 4565) (Streptococcus sp.): <0.5 µg/mL; MIC Streptococcus pyogenes (ID-3187) (Streptococcus sp.): <0.5 µg/mL; MIC Escherichia coli (ATCC 25922) (Escherichia coli): 64 µg/mL (≈ 46.5 µM)
